# Data published in patent US20170027896A1, “METHODS AND COMPOSITIONS FOR THE TREATMENT OF VASCULAR MALFORMATION” (IFOM - FONDAZIONE ISTITUTO FIRC DI ONCOLOGIA MOLECOLARE, priority 2014, published 2017).
# Entries after “also recorded” stand apart in the source; their conditions may differ.
# Experiments:
# [1] = test system: vascular malformations in the retina of CCM3-ECKO mice; experiment: Retina vascular lesions and vein diameter in CCM3-ECKO mice; type: in vivo, mouse
# Source text: The CCM3-flox/flox mice were generated at TaconicArtemis (Koeln, Germany). Two P-lox sequences were inserted that flank exons 4 and 5 of the murine CCM3 gene, to produce a loss-of-function mutation after excision by Ore recombinase. These CCM3-flox/flox mice were bred with Cdh5(PAC)-CreERT2 mice (Wang et al, 2010) for tamoxifen-inducible endothelial-cell-specific expression of Ore-recombinase and CCM3 gene recombination. The CCM3-flox/flox-Cdh5(PAC)-CreERT2 mice were further bred with BAT-gal mice (Maretto et al, 2003) to monitor the activation of b-catenin transcription signaling, and with Rosa 26-Enhanced […] Fluorescent Protein (EYFP) (Rosa26EYFP) mice (Srinivas et al, 2001) to monitor the expression of Ore-recombinase through the expression of EYFP. Tamoxifen (Sigma) was dissolved in corn oil and 10% ethanol (at 10 mg/ml), and then diluted 1:5 in corn oil before single intragastric administration to dpn 1-2 pups (35 mg/kg body weight), as described in^14. The control (wild-type) mice included CCM3-flox/flox-Cdh5(PAC)-CreERT2-BAT-gal mice treated with the vehicle used to dissolve the tamoxifen (corn oil plus 2% ethanol), and CCM3^+/+-Cdh5(PAC)-CreERT2-BAT-gal mice treated with tamoxifen.
# Brains and eyes from mice pups were fixed in 3% paraformaldehyde immediately after dissection, and this fixing was continued overnight at 4° C. […]
# [2] = test system: CCM3-knockout brain endothelial cells in primary culture; experiment: rtPCR of b-catenin target genes in primary cultures of CCM3-knockout brain endothelial cells; type: cell-based, mouse; design: dose or concentration left out as unconfirmed; settings: 48 h
# Source text: Endothelial cells from the CCM3-flox/flox mice (8-10 weeks old) were isolated from the brain as previously described^13. Recombination of the floxed CCM3 gene was induced by treating the cells at culture day 1 with the AdenoCre viral vector, as previously described^59. The control endothelial cells were an aliquot of the same endothelial cell preparation treated with AdenoGFP, instead of AdenoCre. The cells were then maintained in culture for up to a further 7 days before analysis, as described in the main text. Drug treatments were for 48 h before the processing of the cells. Drugs were added to confluent cells for 48 h before the indicated assays. The final concentrations used were: […] (all from Sigma-Aldrich). As all of these were dissolved in DMSO, control treatment (vehicle) was 0.1% DMSO final concentration, as for drug treatment. RNA extraction was performed with RNeasy kits (74106; Promega). The RNA (1 μg) was reverse transcribed with random hexamers (High Capacity cDNA Archive kits; Applied Biosystems). […] For each sample, the expression levels were determined with the comparative threshold cycle (Ct) method, and normalized to the housekeeping genes encoding 18S and glyceraldehyde-3-phosphate dehydrogenase (GAPDH). […]
# [3] = test system: CCM3-knockout endothelial cell line; experiment: Immunostaining of CCM3-knockout endothelial cell line; type: cell-based, mouse
# Method: In some experiments, endothelial cell lines from the lungs of CCM3-flox/flox mice (8-10 weeks old) were immortalized in culture through retroviral expression of polyoma middle T gene^60. […] These cells were then maintained in culture for up to 25 passages without detectable changes in the effects of this CCM3 ablation.
# Drugs were added to confluent cells for 48 h before the indicated assays. The final concentrations used were: […] (all from Sigma-Aldrich). As all of these were dissolved in DMSO, control treatment (vehicle) was 0.1% DMSO final concentration, as for drug treatment.
# Cells cultured in vitro were fixed and stained as described previously^46.
# The following antibodies were used: anti-Pecam (hamster; MAB1398Z, Millipore); anti-b-galactosidase (chicken; ab9361, Abcam); anti-VE-cadherin (rat monoclonal; 550548, BD Biosciences); anti-VE-cadherin (goat; sc-6458, Santa Cruz); anti-active-b-catenin (mouse monoclonal clone 8E7) dephosphorylated on Ser37 and Thr41, Millipore); anti-total-b-catenin (mouse monoclonal; Cell Signaling); anti-S100a4 (rabbit; 07-2274, Millipore); anti-Klf4 (goat; AF3158, R&D); anti-CD44 (rat; 553131, BD Biosciences); anti-ID1 (rabbit; sc-488, Santa Cruz); anti-aSMA (mouse monoclonal; F3777, Sigma); anti-GFP (rabbit; A-6455, Invitrogen); anti-podocalyxin (goat; AF1556, R&D); anti-phospho-histone H3 (rabbit; ab51776, Millipore); anti-CCM3 (rabbit; Eurogentec); anti-p-Smad1 (rabbit; 9516, Cell Signaling); anti-endomucin (rabbit; sc-65495, Santa Cruz); anti-α-tubulin (mouse monoclonal; T9026, Sigma).
# [4] = test system: CCM3-ECKO mice; experiment: Bleeding and mortality in drug-treated CCM3-ECKO mice; settings: 30 mg/kg body weight intragastrically, daily
# Method: Sulindac sulfide (Sigma) and sulindac sulfone (Sigma) were both dissolved in DMSO and further diluted 1:50 in corn oil. They were administered intragastrically, daily (30 mg/kg body weight), starting one day after the induction of recombination. The control mice were treated in parallel with vehicle only (corn oil plus 2% DMSO).
structure (smiles),measurement,setting,value
"CSc1ccc(/C=C2/C(C)=C(CC(=O)O)c3cc(F)ccc32)cc1 [sulindac sulfide, (Z)-5-Fluoro-2-methyl-1-[4-(methylthio)benzylidene]indene-3-acetic acid]",vascular malformations in the retina,"[1]; CCM3-ECKO mice, dpn 9",inhibited; also recorded: partially normalized
same,diameter of the most internal tract of the retinal veins (mean±SD),"[1]; CCM3-ECKO, 30 measurements in 14 retinas, vehicle-ECKO 89.5±7.1 mm",35 ± 7.8 µm
same,"expression of endogenous b-catenin target genes (Klf4, Ly6a, S100a4, Id1; rtPCR)",[2],effectively inhibited
same,apical distribution of podocalyxin,[3],re-establishes the correct apical distribution
same,VE-cadherin at cell-cell contacts,[3]; 48 h,more localized to cell-cell contacts
same,nuclear accumulation of active b-catenin / distribution to adherens junctions,[3]; 48 h,restored the distribution of active b-catenin to the adherens junctions
same,"overexpression of progenitor/EndMT marker proteins (Klf4, S100a4, Id1, CD44)",[3]; 48 h,strongly reduced; also recorded: inhibited
same,bleeding from vascular lesions or mortality versus vehicle-treated mice,[4],did not observe either increased bleeding from vascular lesions or mortality
